Where a name gives a salt, the structure may show the parent alone.
flash point [°C]	Structure (SMILES)
193.00	O=C(O)c1cccnc1 [pyridine-3-carboxylic acid]
49.00	C=C(C)C(=O)OCC(C)C [2-methylpropyl 2-methylprop-2-enoate]
90.00	CCOC(=O)CCC(=O)OCC [diethyl butanedioate]
73.00	CCOC(=O)NC [ethyl N-methylcarbamate]
60.00	C=Cc1cccc(C)c1 [1-ethenyl-3-methylbenzene]
-18.00	CC1OC1C (stereo not drawn) [2,3-dimethyloxirane]
56.00	CCc1ccc(CC)cc1 [1,4-diethylbenzene]
-4.00	CCCCCCC [heptane]
49.00	CCCOCCO [2-propoxyethanol]
52.00	C=CC(=O)OCC(CC)CC [2-ethylbutyl prop-2-enoate]
85.00	COC(=O)CCC(=O)OC [dimethyl butanedioate]
141.00	CC(O)COC(C)COC(C)CO (stereo not drawn) [2-[2-(2-hydroxypropoxy)propoxy]propan-1-ol]
166.00	OCCOCCOCCO [2-[2-(2-hydroxyethoxy)ethoxy]ethanol]
160.00	CCCCCCCCCCCCCCCCCC(=O)OCCCC [butyl octadecanoate]
121.00	O=C(O)c1ccccc1 [benzoic acid]
45.00	C1OCOCO1 [1,3,5-trioxane]
4.00	CCCCOCC [1-ethoxybutane]
77.00	Ic1ccccc1 [iodobenzene]
124.00	CN(C)Cc1cc(CN(C)C)c(O)c(CN(C)C)c1 [2,4,6-tris[(dimethylamino)methyl]phenol]
2.00	C=C(C)CC(C)(C)C [2,4,4-trimethylpent-1-ene]
100.00	Cc1ccc(C(C)C)cc1O [2-methyl-5-propan-2-ylphenol]

flash point [°C]	Structure (SMILES)
7.00	CCCCCN [pentan-1-amine]
91.00	C[Si]1(C)O[Si](C)(C)O[Si](C)(C)O[Si](C)(C)O[Si](C)(C)O[Si](C)(C)O1
132.00	COc1ccc(O)cc1 [4-methoxyphenol]
36.00	CC(C)C1CCCCC1 [propan-2-ylcyclohexane]
161.00	COCCOCCOCCOCCO [2-[2-[2-(2-methoxyethoxy)ethoxy]ethoxy]ethanol]
-10.00	CCSCC [ethylsulfanylethane]
68.00	C=CC(=O)OCCCCCC [hexyl prop-2-enoate]
80.00	CC1(C)OCC(CO)O1 (stereo not drawn) [(2,2-dimethyl-1,3-dioxolan-4-yl)methanol]
129.00	O=C1CCCc2ccccc21 [3,4-dihydro-2H-naphthalen-1-one]
53.00	CCOCC(C)OC(C)=O (stereo not drawn) [1-ethoxypropan-2-yl acetate]
79.00	Br/C=C/c1ccccc1 [[(E)-2-bromoethenyl]benzene]
88.00	CCCCC(CC)COC(C)=O (stereo not drawn) [2-ethylhexyl acetate]
-34.00	C=CC=C(C)C [4-methylpenta-1,3-diene]
38.00	COS(=O)(=O)C(F)(F)F [methyl trifluoromethanesulfonate]
-28.00	CC(C)OC(C)C [2-propan-2-yloxypropane]
36.00	COCC(C)O (stereo not drawn) [1-methoxypropan-2-ol]
121.00	C=C(C)C(=O)OC(C)CO (stereo not drawn) [1-hydroxypropan-2-yl 2-methylprop-2-enoate]
104.00	C=CCc1ccc(O)c(OC)c1 [2-methoxy-4-prop-2-enylphenol]
58.00	C#CC(=O)O [prop-2-ynoic acid]
1.00	CCCCCCl [1-chloropentane]
-26.00	COC(C)(C)C [2-methoxy-2-methylpropane]

flash point [°C]	Structure (SMILES)
111.00	COCCOCCOCCOC [1-methoxy-2-[2-(2-methoxyethoxy)ethoxy]ethane]
64.00	CCCCCCCC(C)=O [nonan-2-one]
217.00	CCCCCCCCOC(=O)CCCCCCCC1OC1CCCCCCCC (stereo not drawn) [octyl 8-(3-octyloxiran-2-yl)octanoate]
93.00	NCCO [2-aminoethanol]
109.00	CCCCCCCCCCCS [undecane-1-thiol]
67.00	CC1(O)CCCCC1 [1-methylcyclohexan-1-ol]
58.00	Cc1cc(C)nc(C)c1 [2,4,6-trimethylpyridine]
91.00	C=CC(=O)OCCN(CC)CC [2-(diethylamino)ethyl prop-2-enoate]
85.00	CCC(C(=O)O)C(=O)O [2-ethylpropanedioic acid]
12.00	CCOC(=O)CC [ethyl propanoate]
153.00	COc1cc(C=O)ccc1O [4-hydroxy-3-methoxybenzaldehyde]
108.00	CNC(C)=O [N-methylacetamide]
59.00	C=C(C)C(=O)OCC(Br)CBr (stereo not drawn) [2,3-dibromopropyl 2-methylprop-2-enoate]
59.00	SCCCS [propane-1,3-dithiol]
102.00	CCCCCN(CCCCC)CCCCC [N,N-dipentylpentan-1-amine]
156.00	Nc1ccccc1N [benzene-1,2-diamine]
59.00	C=Cc1ccccc1Cl [1-chloro-2-ethenylbenzene]
113.00	CCCCCCCCCCCC(=O)O [dodecanoic acid]
196.00	CCC(CC)C(=O)OCCOCCOCCOC(=O)C(CC)CC

Structure (SMILES)	flash point [°C]
CNC(=O)CSP(=S)(OC)OC [2-dimethoxyphosphinothioylsulfanyl-N-methylacetamide]	51.00
CCCC(=O)O [butanoic acid]	77.00
CCC[CH2][Sn]([CH2]CCC)([O]C(C)=O)[O]C(C)=O [[acetyloxy(dibutyl)stannyl] acetate]	143.00
Clc1c(Cl)c(Cl)c(Cl)c(Cl)c1Cl [1,2,3,4,5,6-hexachlorobenzene]	242.00
ClCC(Cl)CCl [1,2,3-trichloropropane]	82.00
Nc1ccncc1 [pyridin-4-amine]	164.00
CC(C)(C)OOC(=O)c1ccccc1 [tert-butyl benzenecarboperoxoate]	93.00
CCO [ethanol]	13.00
CC(C)[N+](=O)[O-] [2-nitropropane]	24.00
O=[N+]([O-])c1cccc(Cl)c1Cl [1,2-dichloro-3-nitrobenzene]	124.00
C=CCCl [3-chloroprop-1-ene]	-32.00
C=C(C)C(=O)OCC1CO1 (stereo not drawn) [oxiran-2-ylmethyl 2-methylprop-2-enoate]	83.00
CN(C)CCN(C)C [N,N,N',N'-tetramethylethane-1,2-diamine]	10.00
Cc1ccccc1O [2-methylphenol]	81.00
C=C(Cl)CCl [2,3-dichloroprop-1-ene]	10.00
O=[N+]([O-])c1ccccc1O [2-nitrophenol]	108.00
CN(C)C1CCCCC1 [N,N-dimethylcyclohexanamine]	42.00
O=C(O)Cc1ccccc1 [2-phenylacetic acid]	132.00
O=C(Cl)c1cccc(C(=O)Cl)c1 [benzene-1,3-dicarbonyl chloride]	180.00
COc1nn(CSP(=S)(OC)OC)c(=O)s1	100.00
NNc1ccccc1 [phenylhydrazine]	88.00

Structure (SMILES)	flash point [°C]
CC(Cl)(Cl)[N+](=O)[O-] [1,1-dichloro-1-nitroethane]	76.00
Cc1cc(Cl)ccc1N [4-chloro-2-methylaniline]	160.00
Cc1ccc([N+](=O)[O-])cc1 [1-methyl-4-nitrobenzene]	106.00
Clc1ccc(Cl)cc1 [1,4-dichlorobenzene]	66.00
Cc1ccccc1C [1,2-xylene]	17.00
CCCC(=O)OC(=O)CCC [butanoyl butanoate]	82.00
c1ccc2c(c1)CCCC2 [1,2,3,4-tetrahydronaphthalene]	80.00
CCCCN(CC)N=O [N-butyl-N-ethylnitrous amide]	93.00
C#CC(C)(C)O [2-methylbut-3-yn-2-ol]	25.00
CCC1(c2ccccc2)C(=O)NC(=O)NC1=O [5-ethyl-5-phenyl-1,3-diazinane-2,4,6-trione]	174.00
O=C(Cl)OCc1ccccc1 [benzyl carbonochloridate]	108.00
CC1CCC(C(C)(C)OO)CC1 (stereo not drawn) [1-(2-hydroperoxypropan-2-yl)-4-methylcyclohexane]	53.00
CCCCCCCCCCCC(=O)[O][Sn]([CH2]CCC)([CH2]CCC)[O]C(=O)CCCCCCCCCCC [[dibutyl(dodecanoyloxy)stannyl] dodecanoate]	235.00
Nc1ccc(Cl)cc1 [4-chloroaniline]	113.00
Oc1ccc(Cl)cc1Cc1ccccc1 [2-benzyl-4-chlorophenol]	188.00
CC=O [acetaldehyde]	-40.00
N#CCCNCCC#N [3-(2-cyanoethylamino)propanenitrile]	110.00
CC(C)CC(C)Nc1ccc(Nc2ccccc2)cc1 (stereo not drawn) [4-N-(4-methylpentan-2-yl)-1-N-phenylbenzene-1,4-diamine]	204.00
CCCCCON=O [pentyl nitrite]	10.00
CCOS(=O)(=O)OCC [diethyl sulfate]	104.00
CCc1ccc2ccccc2c1 [2-ethylnaphthalene]	104.00

From a flash point compilation (Sun et al. 2020)
